Experimental data as given in patent US11479587B2, “Cationic intrinsically disordered antimicrobial peptides” (priority 2016, dated 2022).
Several values for one entry are separate records, joined by “and”; a condition that tells them apart may be missing. Identical values can stand only once. Residues, ends and D or L forms follow the SMILES beside them. No end group written: not given here.

Key:
[1] = tested on: S. aureus ATCC 6538; assay: CFU-assay, S. aureus-cidal activity; assay type: cell-based, Staphylococcus aureus
Description: (§1) Thus, within the present invention, the antimicrobial activity is generally measured in nutrient deficient 10 mM sodium phosphate buffer pH 5.5, containing 0.25% glucose, using the CFU-assay according to Steinberg and Lehrer, 1997 (supra), unless otherwise indicated. The CFU-assay allows determination of the minimal bactericidal concentration (MBC, e.g., MBC90 and MBC100; i.e. the concentration of compound required to achieve a specified reduction in bacterial cell number (microbial death or killing)).
Various peptides corresponding to repeat domains of hornerin (HR 1-11: HRNR 2606-2628; HR 1-17: HRNR 2656-2684 and HR 1-18: HRNR 2656-2677) were tested for P. aeruginosa ATCC 10145-cidal activity in 10 mM Na-phosphate buffer pH 5.5, containing 0.25% glucose by counting the numbers of colonies of surviving bacteria at serial, twofold dilutions from 300 μg/ml down to 19 ng/ml of each peptide (CFU-assay; Steinberg and Lehrer, 1997, Methods Mol. Biol. 78, 169-186).
Staphylococcus aureus is a major skin pathogen, which causes skin infections, in particular in atopic dermatitis. The sensitivity of S. aureus ATCC 6538 towards several CIDAMPs was assessed using the CFU-assay as above (see Example 1). HR 1-18, which lacks S. aureus.-bactericidal activity, is converted in a S. aureus-cidal peptide, when all His are replaced by Arg (HR 1-18 4H-4R; see Table 13 and FIG. 9). […] HR 1-18 4H-4R is rich in Ser and Arg and contains a single Leu residue. When this single Leu was replaced by Gly in S. aureus-cidal HR 1-18 4H-4R (forming HR 1-18 4H-4R/L-G), S. aureus-cidal activity was abolished at both pH 7.0 and pH 5.5 (see Table 13 and FIG. 9).

[2] = Cytotoxicity (resazurin) assay
Description: For the cytotoxicity (resazurin) assay, HEK293 cells were counted manually in a Neubauer haemocytometer and plated at a density of 4000 cells/well into each well of the 384-well plates containing the 25×(2 μl) concentrated compounds. The medium used was Dulbecco's modified eagle medium (DMEM) supplemented with 10% foetal bovine serum (FBS). Cells were incubated together with the compounds for 20 h at 37° C., 5% CO2. To measure cytotoxicity, 5 μl (equals 100 μM final) resazurin was added to each well after incubation, and incubated for further 3 h at 37° C. with 5% CO2.
After final incubation fluorescence intensity was measured as F ex 560/10 nm, em 590/10 nm (F560/590) using a Tecan M1000 Pro monochromator plate reader. […] The concentration dependent percentage cytotoxicity was fitted to a dose response function (using Pipeline Pilot) and CC50 values determined.

[3] = Hemolysis assay; assay type: cell-based; settings: for HC50 at 1 h: human, washed erythrocytes from EDTA-blood, pH 7.4
Description: For the hemolysis assays EDTA-blood was centrifuged at 800×g for 10 min, and the plasma and buffy coat were removed. The erythrocytes were washed three times and resuspended in 5% PBS, pH 7.4. The cells were then incubated with end-over-end rotation for 1 h at 37° C. in the presence of different concentrations of peptides (0, 3, 10, 30, 60 μm). 0.1% Triton X-100 (Sigma-Aldrich) served as positive control. The samples were then centrifuged at 800×g for 10 min.
The absorbance of hemoglobin release was measured at 540 nm and is expressed as % of Triton X-100-induced hemolysis. These values of triplicates were plotted with Graph Pad Prism 4 as a dose response curve and the CC50 was determined.

[4] = tested on: P. aeruginosa ATCC 10145; assay: CFU-assay, P. aeruginosa-cidal activity; assay type: cell-based, Pseudomonas aeruginosa
[5] = tested on: Candida albicans ATCC 24433; assay: CFU-assay, Candida albicans-cidal activity; assay type: cell-based; settings: pH 5.5, 1% TSB
Description: as §1, with “killing)). […]” for “killing)).”
HR 1-17 affects C. albicans ATCC 24433 with highest activity at pH 5.5 in the absence of TSB in the medium (see Tables 12, 24). […] Furthermore, the substitution of any of the Arg residues by Gly leads to a dramatic reduction or loss of candidacidal activity (see Table 24).

## GRHGSGLGHSSSHGQHGSGSGR [HR 1-18]
[1]; pH 5.5
  CC50/MBC90 (S.aureus): No activity
[2]
  CC50: > 32 µg/mL and > 15.2 µM
[3]
  HC50: > 300 µg/mL
  HC50 at 1 h: > 143 µM

## CCCCCCCCCCCCCCCC(=O)NCC(=O)N[C@@H](CCCCN)C(=O)NCC(=O)N[C@@H](CCCCN)C(=O)O [Pal-GK4, Pal-GKGK] (HELM PEPTIDE1{[CCCCCCCCCCCCCCCC(=O)[*:2]].G.K.G.K}$$$$V2.0)
[2]
  CC50: > 32 µg/mL
[3]
  HC50: 50 µg/mL

## SHHRRRRSHCH [LCE1B78-88]
[2]
  CC50: > 32 µg/mL

## SHHRHFRSHQCRR [LCE3C55-67]
[2]
  CC50: > 32 µg/mL
[3]
  HC50: > 300 µg/mL

## CCCCCCCCCCCCCCCC(=O)NCC(=O)N[C@H](CCCNC(=N)N)C(=O)NCC(=O)N[C@H](CCCNC(=N)N)C(=O)O [D-Pal-GR4, Pal-GRDGRD] (HELM PEPTIDE1{[CCCCCCCCCCCCCCCC(=O)[*:2]].G.[dR].G.[dR]}$$$$V2.0)
[2]
  CC50: > 32 µg/mL
[3]
  HC50: 300 µg/mL

## N=C(N)NCCC[C@H](NC(=O)[C@H](Cc1c[nH]cn1)NC(=O)[C@H](CO)NC(=O)[C@H](CCCNC(=N)N)NC(=O)[C@H](CCCNC(=N)N)NC(=O)[C@H](CS)NC(=O)[C@H](CCCNC(=N)N)NC(=O)[C@H](Cc1c[nH]cn1)NC(=O)[C@H](Cc1c[nH]cn1)NC(=O)[C@@H](N)CO)C(=O)N[C@@H](CS)C(=O)O [LCE3A50-60] (H-SHHRCRRSHRC-OH)
[2]
  CC50: > 32 µg/mL

## N=C(N)NCCC[C@H](NC(=O)[C@H](CC(=O)O)NC(=O)[C@H](CS)NC(=O)[C@H](CO)NC(=O)[C@H](CC(N)=O)NC(=O)[C@H](CO)NC(=O)[C@H](CCCNC(=N)N)NC(=O)[C@H](CCC(N)=O)NC(=O)[C@H](CCCNC(=N)N)NC(=O)[C@H](CCCNC(=N)N)NC(=O)[C@H](CS)NC(=O)[C@H](CCC(N)=O)NC(=O)[C@H](Cc1c[nH]cn1)NC(=O)[C@H](CO)NC(=O)[C@H](CCCNC(=N)N)NC(=O)[C@H](Cc1ccccc1)NC(=O)[C@H](Cc1c[nH]cn1)NC(=O)[C@H](CCCNC(=N)N)NC(=O)[C@H](Cc1c[nH]cn1)NC(=O)[C@H](Cc1c[nH]cn1)NC(=O)[C@@H](N)CO)C(=O)O [LCE3C55-75] (H-SHHRHFRSHQCRRQRSNSCDR-OH)
[2]
  CC50: > 32 µg/mL
[3]
  HC50: > 300 µg/mL

## SHHRHFRSHQCR [LCE3C55-66]
[2]
  CC50: > 32 µg/mL

## GRRGSGLGRSSSRGGRGSGSGR [HR 1-18 4H-4R]
[4]; pH 5.0, 0.25% glucose
  MBC90: 0.038 µg/mL
  MBC100: 0.15 µg/mL
[4]; pH 5.5
  P. aeruginosa MBC90: 0.018 µM
  P. aeruginosa MBC100: 0.142 µM
[4]; pH 6.0, 0.25% glucose
  MBC90: 2.35 µg/mL
  MBC100: 4.7 µg/mL
[4]; pH 6.5, 0.25% glucose
  MBC90: 2.35 µg/mL
  MBC100: 4.7 µg/mL
[4]; pH 7.0, 0.25% glucose
  MBC90: 2.38 µg/mL and 2.35 µg/mL
  MBC100: 9.38 µg/mL
[1]; pH 5.5, 0.25% glucose
  MBC90: 150 µg/mL
  MBC100: >300 µg/mL
[1]; pH 7.0
  S. aureus MBC90: 4.46 µM
  S. aureus MBC100: >143 µM
[1]; pH 7.0, 0.25% glucose
  MBC90: 9.35 µg/mL and 9.375 µg/mL
  MBC100: >300 µg/mL
  max.killing: max.killing: 98.8%
[2]
  CC50: > 15.2 µM
[3]
  HC50 at 1 h: > 150 µM

## CCCCCCCCCCCCCC(=O)NCC(=O)N[C@@H](CCCNC(=N)N)C(=O)N[C@@H](Cc1c[nH]cn1)C(=O)NCC(=O)N[C@@H](CO)C(=O)NCC(=O)N[C@@H](CC(C)C)C(=O)NCC(=O)N[C@@H](Cc1c[nH]cn1)C(=O)N[C@@H](CO)C(=O)N[C@@H](CO)C(=O)N[C@@H](CO)C(=O)N[C@@H](Cc1c[nH]cn1)C(=O)NCC(=O)N[C@@H](CCC(N)=O)C(=O)N[C@@H](Cc1c[nH]cn1)C(=O)NCC(=O)N[C@@H](CO)C(=O)NCC(=O)N[C@@H](CO)C(=O)NCC(=O)N[C@@H](CCCNC(=N)N)C(=O)O [Myr-HR 1-18] (HELM PEPTIDE1{[CCCCCCCCCCCCCC(=O)[*:2]].G.R.H.G.S.G.L.G.H.S.S.S.H.G.Q.H.G.S.G.S.G.R}$$$$V2.0)
[2]
  CC50: 32 µg/mL
[3]
  HC50: > 300 µg/mL

## GGHGSGLGHSSSHGQHGSGSGRSSSRGPY (Modified peptide derived from human hornerin (HR 1-17 R2657G))
[4]; pH 5.0, 0.25% glucose
  MBC90: 0.0375 µg/mL
  MBC100: 0.3 µg/mL
[5]
  MBC90: >300 µg/mL
  MBC100: >300 µg/mL

## SHHRPRLFHRHRH [LCE2A70-82]
[2]
  CC50: > 32 µg/mL

## GRHGSGLGHSSSHGQHGSGSGRSSSGGPY (Modified peptide derived from human hornerin (HR 1-17 R2681G))
[4]; pH 5.0, 0.25% glucose
  MBC90: 0.0375 µg/mL
  MBC100: 0.15 to 0.3 µg/mL
[5]
  MBC90: 300 µg/mL
  MBC100: >300 µg/mL
